Drawing on BindingDB's records for doi:10.1016/j.bmcl.2009.04.143 (Incyte, 2009), this text covers IC50 for six compounds.

The test can be described thus: Inhibition of HER2 extracellular domain sheddase activity in human BT474 cells after 72 hrs by ELISA. A general note: In an ELISA, binding on a coated surface is turned into a signal by an enzyme label.
Consider `O=C(NO)[C@H]1CC(CC(=O)N2CCCC2)CN[C@@H]1C(=O)N1CCN(c2ccccc2)CC1` (mixture of isomers) [(2S,3S,5RS)-N-hydroxy-5-(2-oxo-2-(pyrrolidin-1-yl)ethyl)-2-(4-phenylpiperazine-1-carbonyl)piperidine-3-carboxamide], for which it took 28 nM to reach half-maximal inhibition (IC50). In other words, the double-digit nanomolar range. As for `O=C(NO)[C@H]1CC(CC(=O)N2CC[C@@H](O)C2)CC[C@@H]1C(=O)N1CCN(c2ccccc2)CC1` (mixture of isomers) [(1S,2S,5RS)-N-hydroxy-5-(2-((R)-3-hydroxypyrrolidin-1-yl)-2-oxoethyl)-2-(4-phenylpiperazine-1-carbonyl)cyclohexanecarboxamide], the figure is 226 nM; as for `CN1CCN(C(=O)CC2CC[C@H](C(=O)N3CCN(c4ccccc4)CC3)[C@@H](C(=O)NO)C2)CC1` (mixture of isomers) [(1S,2S,5RS)-N-hydroxy-5-(2-(4-methylpiperazin-1-yl)-2-oxoethyl)-2-(4-phenylpiperazine-1-carbonyl)cyclohexanecarboxamide], 100 nM. For `CN1CC(CC(=O)N2CCCCC2)C[C@H](C(=O)NO)[C@H]1C(=O)N1CCN(c2ccccc2)CC1` (mixture of isomers) [(2S,3S,5RS)-N-hydroxy-1-methyl-5-(2-oxo-2-(piperidin-1-yl)ethyl)-2-(4-phenylpiperazine-1-carbonyl)piperidine-3-carboxamide], the half-maximal inhibitory concentration (IC50) (in general, the concentration that gives 50% inhibition) is 102 nM. `O=C(NO)[C@H]1CC2(CC[C@@H]1C(=O)N1CCN(c3ccccc3)CC1)CC2` [(5S,6S)-N-hydroxy-6-(4-phenylpiperazine-1-carbonyl)spiro[2.5]octane-5-carboxamide] had an IC50 of 100 nM. `O=C(NO)[C@H]1CC(CC(=O)N2CCOCC2)CC[C@@H]1C(=O)N1CCN(c2ccccc2)CC1` (mixture of isomers) [(1S,2S,5RS)-N-hydroxy-5-(2-morpholino-2-oxoethyl)-2-(4-phenylpiperazine-1-carbonyl)cyclohexanecarboxamide] yielded an IC50 of 208 nM. This IC50 lies about 2.1-fold higher than the previous one.
